We go through six compounds from patent EP1658844A1, “Use of artemisinin derivatives in the manufacture of a medicament for the treatment of melanoma” (Schuler, Gerold, priority 2004, dated 2006).

For data set [1], the system named is nucleic acid synthesis. The note with it: cited from earlier work.
For data set [2] the following is noted: within the group of artemisinin analogs; cited from earlier work.
For data set [3], the system named is tumor. The conditions noted are these: combination treatment with ferrous sulfate, three dog studies; cited from earlier work.
The subject of data set [4] is P388 leukemia. The note with it: NCI report on NSC 369397; cited from earlier work.
In data set [5] the test system is cell line panels consisting of 60 lines. The conditions noted are these: 60 cell lines in nine disease-related subpanels; cited from earlier work.
Data set [6] relates to uveal melanoma. The conditions noted are these: largest prospective trial, metastatic uveal melanoma; cited from earlier work.
Data set [7] concerns metastatic uveal melanoma. As for the experimental part:
In the experimental examples below, standard techniques of therapeutical agent administration were used. […] Artesunate was provided by Sanofi Synthelabo, France.
The clinical course of the disease and the treatment modalities are depicted in detail in Figure 1. […] A chemotherapy with Dacarbazin (DTIC) was initiated at a concentration of 850 mg per m^2 body surface.
The clinical course of the disease and the treatment modalities are depicted in detail in Figure 2. […] A chemotherapy with DTIC at a concentration of 850 mg per m^2 body surface was initiated. […] In addition, the patient received an iron medication (three times daily ferroglycine sulfate equivalent to 40 mg Fe^2+) to potentially increase the efficacy of ART.

`C[C@H]1[C@@H](OCc2ccc(C(=O)O)cc2)O[C@@H]2O[C@@]3(C)CC[C@H]4[C@H](C)CC[C@@H]1[C@@]24OO3` [artelinic acid]: in data set [1], the “activity relative to artemisinin in ability to inhibit nucleic acid synthesis” value is recorded as 100 times. Further, in data set [2], the stability entry is recorded as “most stable” and the water solubility entry is on record as “most water soluble”.
Consider `CCO[C@H]1O[C@@H]2O[C@@]3(C)CC[C@H]4[C@H](C)CC[C@@H]([C@H]1C)[C@@]24OO3` [arteether], for which the “activity relative to artemisinin in ability to inhibit nucleic acid synthesis” value in data set [1] is 100 times.
Regarding `C[C@@H]1CC[C@H]2[C@@H](C)C(=O)O[C@@H]3O[C@@]4(C)CC[C@@H]1[C@]32OO4` [Artemisinin], the tumor size result in data set [3] is reported as “reduction of tumor size”. For the same compound, the “activity against P388 leukemia” value in data set [4] was “inactive”. The anticancer activity result in data set [5] is recorded as “very little anticancer activity”.
In the case of `CCOP(=O)(OCC)C(C)NC(=O)N(CCCl)N=O` (stereo not drawn) [Fotemustine], the “complete responses (CR)” value in data set [6] is given as “one CR in 48 patients”.
Consider `C[C@H]1[C@H](OC(=O)CCC(=O)O)O[C@@H]2O[C@@]3(C)CC[C@H]4[C@H](C)CC[C@@H]1[C@@]24OO3` [ART, (3R,5aS,6R,8aS,9R,10S,12R,12aR)-Decahydro-3,6,9-trimethyl-3,12-epoxy-12H-pyrano[4,3-j]1,2-benzodioxepin-10-ol,hydrogen succinate], for which the “activity relative to artemisinin in ability to inhibit nucleic acid synthesis” value in data set [1] was 100 times. In data set [7] (human, in vivo), the “side effects throughout the combination therapy” value is given as “no additional side effects” and the “toxicity of ART-treatment” value is on record as “without measurable toxicity”. For the same compound, the “survival after start of the ART/Fotemustine therapy” value in data set [7] (patient 1) is listed as 11 months. For the same compound, the “response at first staging” value in data set [7] (patient 1, ART 2 times daily 50 mg p.o. in combination with Fotemustine, three months after initiation) was “mixed response”. Further, the “time to death after entry into stage IV according to AJCC” value in data set [7] (patient 1, DTIC, then Fotemustine, then ART plus chemotherapy) is given as 23 months. For the same compound, the “survival (still alive) after initiation of ART/DTIC-therapy” value in data set [7] (patient 2) is ≥ 37 months. In addition, in data set [7] (patient 2, 50 mg ART twice daily p.o. with DTIC and ferroglycine sulfate, after 21 courses of DTIC, the last 11 with ART), the response result was “objective response”. The “survival (still alive) after first diagnosis of stage IV uveal melanoma” value in data set [7] (patient 2, ART added to Dacarbazin) was ≥ 37 months.
As to `CCCOC(=O)OC1O[C@@H]2O[C@@]3(C)CC[C@H]4[C@H](C)CC[C@@H]([C@H]1C)[C@@]24OO3` (stereo partly drawn) [propylcarbonate dihydroartemisinin], the “activity relative to artemisinin in ability to inhibit nucleic acid synthesis” value in data set [1] is recorded as 100 times.
